Measurements from the supplement of paper PMC10307832.

Assays:
Experiment in all cases: relative viability (nuclei count vs DMSO), 5 days (fraction); higher = more cells survive
Venetoclax + Navitoclax = compound: CC1(C)CCC(CN2CCN(c3ccc(C(=O)NS(=O)(=O)c4ccc(NCC5CCOCC5)c([N+](=O)[O-])c4)c(Oc4cnc5[nH]ccc5c4)c3)CC2)=C(c2ccc(Cl)cc2)C1 [Venetoclax] + CC1(C)CCC(c2ccc(Cl)cc2)=C(CN2CCN(c3ccc(C(=O)NS(=O)(=O)c4ccc(N[C@H](CCN5CCOCC5)CSc5ccccc5)c(S(=O)(=O)C(F)(F)F)c4)cc3)CC2)C1 [Navitoclax] (partner 0.5 µM)
Outline: (§1)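 Values are medians from duplicate plates. Each reflects relative viability, defined as the nuclei count of treated wells over that of vehicle wells. Lung cancer cell lines in 1536-well plates were pin-tool dosed one day after seeding with one drug alone or with a fixed anchor-drug dose plus five library-drug doses (not always all listed) in √10 steps, then fixed, stained and imaged at 4× after 5 days.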

Venetoclax + Lapatinib = compound: CC1(C)CCC(CN2CCN(c3ccc(C(=O)NS(=O)(=O)c4ccc(NCC5CCOCC5)c([N+](=O)[O-])c4)c(Oc4cnc5[nH]ccc5c4)c3)CC2)=C(c2ccc(Cl)cc2)C1 [Venetoclax] + CS(=O)(=O)CCNCc1ccc(-c2ccc3ncnc(Nc4ccc(OCc5cccc(F)c5)c(Cl)c4)c3c2)o1 [Lapatinib] (partner 2 µM)
Outline: as §1

Selumetinib + Luminespib = compound: Cn1cnc2c(F)c(Nc3ccc(Br)cc3Cl)c(C(=O)NOCCO)cc21 [Selumetinib] + CCNC(=O)c1noc(-c2cc(C(C)C)c(O)cc2O)c1-c1ccc(CN2CCOCC2)cc1 [Luminespib] (partner 0.01 µM)
Outline: as §1

Selumetinib + Dasatinib = compound: Cn1cnc2c(F)c(Nc3ccc(Br)cc3Cl)c(C(=O)NOCCO)cc21 [Selumetinib] + Cc1nc(Nc2ncc(C(=O)Nc3c(C)cccc3Cl)s2)cc(N2CCN(CCO)CC2)n1 [Dasatinib] (partner 0.075 µM)
Outline: as §1

Row | Cell Line | relative viability (Venetoclax + Navitoclax; first compound 0.01 µM) | relative viability (Venetoclax + Navitoclax; first compound 0.03162 µM) | relative viability (Venetoclax + Navitoclax; first compound 0.1 µM) | relative viability (Venetoclax + Navitoclax; first compound 0.3162 µM) | relative viability (Venetoclax + Navitoclax; first compound 1 µM) | relative viability (Venetoclax + Lapatinib; first compound 0.01 µM) | relative viability (Venetoclax + Lapatinib; first compound 0.03162 µM) | relative viability (Venetoclax + Lapatinib; first compound 0.1 µM) | relative viability (Venetoclax + Lapatinib; first compound 0.3162 µM) | relative viability (Venetoclax + Lapatinib; first compound 1 µM) | relative viability (Selumetinib + Luminespib; first compound 0.02 µM) | relative viability (Selumetinib + Luminespib; first compound 0.06325 µM) | relative viability (Selumetinib + Luminespib; first compound 0.2 µM) | relative viability (Selumetinib + Luminespib; first compound 0.6325 µM) | relative viability (Selumetinib + Dasatinib; first compound 0.02 µM) | relative viability (Selumetinib + Dasatinib; first compound 0.06325 µM) | relative viability (Selumetinib + Dasatinib; first compound 0.2 µM) | relative viability (Selumetinib + Dasatinib; first compound 0.6325 µM)
1 | LOU-NH91 | 0.594 | 0.832 | 0.676 | 0.77 | 0.659 | 0.757 | 0.843 | 0.737 | 0.778 | 0.75 | 0.381 | 0.302 | 0.329 | 0.359 | 0.547 | 0.504 | 0.495 | 0.534
2 | NCI-H520 | 1.14 | 1.27 | 1.06 | 1.2 | 0.962 | 0.86 | 0.979 | 0.76 | 0.903 | 0.732 | 0.226 | 0.215 | 0.213 | 0.238 | 0.261 | 0.29 | 0.278 | 0.306
3 | H3255 | 0.54 | 0.573 | 0.433 | 0.618 | 0.498 | 0.268 | 0.263 | 0.195 | 0.282 | 0.319 | 1.04 | 0.918 | 1.05 | 0.87 | 0.41 | 0.358 | 0.329 | 0.344
